Experimental data: patent publication US9546401B2, “Assays and methods for selecting a treatment regimen for a subject with depression” (The General Hospital Corporation, priority 2011, dated 2017)
Where two headings read alike, the source gives them in different places.

How the values were obtained:
[1] = tested on: SSRI-resistant outpatients with major depressive disorder (MDD)
From the text: (§1) Using the sequential parallel design […] For those randomly assigned to the placebo/placebo sequence, both responders and non-responders to placebo during the first phase (n=25) remain on placebo during the second phase. […] Data from the previous double-blind, placebo-controlled study (Trial 1) can be pooled into the instant study (Trial 2) to provide a more accurate estimate of the placebo effect size, with a weighted average from the two Phases 1 (one from Trial 1 and one from Trial 2) and two Phases 2 (one from Trial 1 and one from Trial 2).
(§2) The primary efficacy measure can include the change in 17-item Hamilton Rating Scale for Depression (HAM-D-17) score. […] A remission is, for example, defined as a HAM-D-17 score less than 8 at endpoint. Secondary measures of efficacy can include change in CGI-severity, with “clinical response defined” as CGI-S of 1 or 2 at endpoint. Patients with a CGI-I score greater than 5 at any post baseline visit or a 50 percent or greater worsening of depressive symptoms from baseline to that visit are discontinued from the study. Subjects are also discontinued from the study with any emergence of suicidality, homicidality, mania, or psychosis. Additional exemplary instruments that can be administered according to the study schedule include the following: • (1) Structured Clinical Interview for DSM-IV: The SCID-I/P, administered by the clinician, proceeds by modules to diagnose the different Axis I disorders. Questions are asked exactly as written, and each is based on the individual criteria from DSM-IV. Answers are generally rated on a scale of 1-3 (1=doubtful, 2=probable, 3=definite), and, based on the number of positive answers, a diagnosis is determined by a clinician. While the entire SCID-I/P is administered at screen, the mood module is administered at each follow up visit. • (2) The MGH Antidepressant Treatment History Questionnaire (MGH-ATR): The MGH-ATR provides specific criteria for the adequate dose and adequate length of a trial for it to be considered a failure, thus allowing clinicians to systematically collect data aimed at assessing the degree of treatment-resistance of the current major depressive episode. • (3) The 28-item Hamilton Depression Scale (HAM-D-28): This version allows scoring of the HAM-D-17, 21-, 25-, and 28-item scales. This instrument is completed by the clinician by using a structured interview and defined anchor points, and aims to quantify the degree of depression over the past 7 days. The HAM-D is the most widely studied instrument for depression, and its reliability and validity are high. • (4) Clinical Global Impressions—Severity and Improvement (CGI-S, CGI-I): These two instruments are scored 1-7 by the clinician based on assessment of the patient's clinical status. They measure, based on history and scores on other instruments: a) Depressive severity (CGI-S) and b) Clinical Improvement (CGI-I). […] Safety Measurements
Data are entered and error-checked at each clinical site involved in the study. Study staff and subjects may have the option to enter self-evaluations into the system directly using DatStat Illume™. The process of data entry is supervised by the DCRP staff. Once the data set is entered and checked, analyses are conducted. Both a completer analysis of all patients finishing the trial and an intent-to-treat analysis examining all patients enrolled into the trial are used to define the severity of depression at endpoint. Examination of both study completers and all patients randomized can provide the broadest assessment of the effects of treatment in trials of such kind. The data from Trial 2 can be pooled with those from Trial 1 with the sequential parallel comparison design, to provide an estimate of the placebo response based on a larger sample size. […] Let p1, q1 be the response rates to the first administration of drug and placebo respectively and let p2, q2 be the responses rates to the second treatment.

[2] = tested on: SSRI-resistant outpatients with major depressive disorder (MDD); details: for CGI-S Mean score reduction / HDRS-17 % Remission / HDRS-17 % Response / HDRS-17 Mean score reduction / QIDS-SR % Remission / QIDS-SR % Response / QIDS-SR Mean score reduction: 15 mg/day adjunct to an SSRI
From the text: as §1
All patients are asked to take one tablet of blinded study medication in the morning, in addition to their stable dose of ongoing SSRI treatment. […] Therefore, for patients randomly assigned to the placebo/placebo sequence, the tablets of study medication are placebo during both phases of the study.
as §2
Data are entered and error-checked at each clinical site involved in the study. Study staff and subjects may have the option to enter self-evaluations into the system directly using DatStat Illume™. The process of data entry is supervised by the DCRP staff. Once the data set is entered and checked, analyses are conducted. Both a completer analysis of all patients finishing the trial and an intent-to-treat analysis examining all patients enrolled into the trial are used to define the severity of depression at endpoint. Examination of both study completers and all patients randomized can provide the broadest assessment of the effects of treatment in trials of such kind.

[3] = tested on: MDD patients positive or negative for SNP biomarkers; details: subjects positive for MTR 2756 AG or GG versus negative
From the text: A responder is indicated by a reduction of at least about 50% in HAMD-28 over the evaluation period.

[4] = Pooled Phase 1 and 2, 7.5 mg/day + SSRI
[5] = SSRI + 15 mg/day versus SSRI + placebo, after 30 days

SMILES: CN1c2c(nc(N)[nH]c2=O)NC[C@@H]1CNc1ccc(C(=O)N[C@@H](CCC(=O)O)C(=O)O)cc1 [6(S)-5-MTHF, 6(S)-5-methyltetrahydrofolate]
- efficacy as an adjunct to the SSRIs ([1]; 7.5 mg/day): not effective
- CGI-S Mean score reduction ([1]; Phase 1, 7.5 mg/day + SSRI): −0.5
- HDRS-17 % Remission ([1]; Phase 1, 7.5 mg/day + SSRI): 11.1%
- HDRS-17 % Response ([1]; Phase 1, 7.5 mg/day + SSRI): 19.4%
- HDRS-17 Mean score reduction ([1]; Phase 1, 7.5 mg/day + SSRI): −4.3
- QIDS-SR % Remission ([1]; Phase 1, 7.5 mg/day + SSRI): 0.0%
- QIDS-SR % Response ([1]; Phase 1, 7.5 mg/day + SSRI): 25.0%
- QIDS-SR Mean score reduction ([1]; Phase 1, 7.5 mg/day + SSRI): −4.6
- CGI-S Mean score reduction ([1]; Phase 2, 7.5 mg/day + SSRI): −0.5
- HDRS-17 % Remission ([1]; Phase 2, 7.5 mg/day + SSRI): 14.2%
- HDRS-17 % Response ([1]; Phase 2, 7.5 mg/day + SSRI): 17.1%
- HDRS-17 Mean score reduction ([1]; Phase 2, 7.5 mg/day + SSRI): −3.1
- QIDS-SR % Remission ([1]; Phase 2, 7.5 mg/day + SSRI): 8.5%
- QIDS-SR % Response ([1]; Phase 2, 7.5 mg/day + SSRI): 8.5%
- QIDS-SR Mean score reduction ([1]; Phase 2, 7.5 mg/day + SSRI): −1.9
- CGI-S Mean score reduction [1, 4]: −0.53
- HDRS-17 % Remission [1, 4]: 12.7%
- HDRS-17 % Response [1, 4]: 18.3%
- HDRS-17 Mean score reduction [1, 4]: −3.70
- QIDS-SR % Remission [1, 4]: 4.3%
- QIDS-SR % Response [1, 4]: 16.8%
- QIDS-SR Mean score reduction [1, 4]: −3.25
- increase in response and remission rate versus placebo with the SSRIs ([1]; Trial 1, 15 mg/day in second phase): at least 2 fold
- response and remission rate ([1]; Trial 1, drug/drug sequence, dose increased to 15 mg/day in second phase, placebo 9%, p=0.1): 24%
- CGI-S Mean score reduction ([2]; Phase 1): −1.3
- HDRS-17 % Remission ([2]; Phase 1): 15.7%
- HDRS-17 % Response ([2]; Phase 1): 36.8%
- HDRS-17 Mean score reduction ([2]; Phase 1): −7.5
- QIDS-SR % Remission ([2]; Phase 1): 21.0%
- QIDS-SR % Response ([2]; Phase 1): 36.8%
- QIDS-SR Mean score reduction ([2]; Phase 1): −8.1
- CGI-S Mean score reduction ([2]; Phase 2): −0.5
- HDRS-17 % Remission ([2]; Phase 2): 11.1%
- HDRS-17 % Response ([2]; Phase 2): 27.7%
- HDRS-17 Mean score reduction ([2]; Phase 2): −3.8
- QIDS-SR % Remission ([2]; Phase 2): 5.5%
- QIDS-SR % Response ([2]; Phase 2): 11.1%
- QIDS-SR Mean score reduction ([2]; Phase 2): −1.3
- CGI-S Mean score reduction ([2]; Pooled Phases 1 and 2): −0.92
- HDRS-17 % Remission ([2]; Pooled Phases 1 and 2): 13.4%
- HDRS-17 % Response ([2]; Pooled Phases 1 and 2): 32.3%
- HDRS-17 Mean score reduction ([2]; Pooled Phases 1 and 2): −5.58
- QIDS-SR % Remission ([2]; Pooled Phases 1 and 2): 13.3%
- QIDS-SR % Response ([2]; Pooled Phases 1 and 2): 23.9%
- QIDS-SR Mean score reduction ([2]; Pooled Phases 1 and 2): −4.7
- degree of improvement (HAM-D-17, QIDS-SR, CGI-S) [2, 5]: greater degree of reduction in the scores of HAM-D-17, QIDS-SR and CGI-S
- percentage of remitters (HAM-D-17 or QIDS-SR) [2, 5]: no significant difference
- percentage of responders (50% or greater reduction in HAM-D-17) [2, 5]: response rate is higher for the 6(S)-5-MTHF group than the placebo group
- treatment effect within genetic modifiers (race, age, sex, BMI) [3]: statistically significant treatment effect
